From DBAASP come the findings set out here.

≈ marks a conversion by molar mass, not a printed value.

Holding throughout (assay): ≥ marks a high value that may be exact or a test limit, other limits are often not marked, values filed in µg/mL are converted to µM
The test system of experiment [1] is Bacillus cereus ACM 446.
Experiment [2] deals with Escherichia coli L361.
Experiment [3] deals with Escherichia coli O9.
In experiment [4] the test system is Listeria monocytogenes NCTC 7973.
The test system of experiment [5] is Pseudomonas fluorescens.
Experiment [6] relates to Salmonella enterica subsp. enterica serovar Salford IMVS 1710.
For experiment [7], the system named is Staphylococcus aureus NCTC 6571.
The subject of experiment [8] is Acinetobacter baumannii ATCC 19606.
Experiment [9] relates to Escherichia coli BW25113 ΔsbmA.
For experiment [10], the system named is Escherichia coli BW25113.
Experiment [11] relates to Escherichia coli.
Experiment [12] deals with Klebsiella pneumoniae ATCC 700603.
For experiment [13], the system named is Pseudomonas aeruginosa ATCC 27853.
Experiment [14] has as its system Staphylococcus aureus ATCC 25923.
Experiment [15] concerns Enterobacter cloacae.
Experiment [16] deals with Escherichia coli ATCC 25922.
Experiment [17] concerns Escherichia coli ATCC 35218.
For experiment [18], the system named is Escherichia coli UTI89.
The subject of experiment [19] is Klebsiella pneumoniae NDM-1.
Experiment [20] relates to Klebsiella pneumoniae.
For experiment [21], the system named is Pseudomonas aeruginosa PAO1.
Experiment [22] relates to Vibrio cholerae.
In experiment [23] the test system is Candida albicans NCYC 1467.
Experiment [24] concerns Enterococcus faecalis NCTC 12697.
The test system of experiment [25] is Escherichia coli NCTC 10418.
Experiment [26] deals with Klebsiella pneumoniae ATCC 43816.
The subject of experiment [27] is Staphylococcus aureus ATCC 12493.
Experiment [28] relates to Staphylococcus aureus NCTC 10788.
Experiment [29] concerns Staphylococcus aureus.
The subject of experiment [30] is Candida albicans ATCC 10231.
Experiment [31] deals with Escherichia coli KCTC 2223.
For experiment [32], the system named is Pseudomonas aeruginosa H636.
The test system of experiment [33] is Salmonella typhimurium KCTC 2370.
In experiment [34] the test system is Staphylococcus aureus ATCC 15752.
The test system of experiment [35] is Cronobacter muytjensii ATCC 51329.
Experiment [36] relates to Cronobacter sakazakii ATCC BAA-894.
Experiment [37] has as its system Cronobacter sakazakii DPC 6440.
In experiment [38] the test system is Cronobacter sakazakii DSM 4485.
For experiment [39], the system named is Escherichia coli NCIMB 11843.
Experiment [40] relates to Klebsiella pneumoniae NCIMB 13218.
In experiment [41] the test system is Pseudomonas fluorescens NCIMB 9046.
In experiment [42] the test system is Salmonella enterica subsp. enterica serovar Typhimurium LT2.
Experiment [43] deals with Staphylococcus aureus NCTC 8325-4.
The subject of experiment [44] is Staphylococcus aureus Newman.
Experiment [45] relates to Staphylococcus aureus RF122.
Experiment [46] relates to Staphylococcus aureus RN4220.
In experiment [47] the test system is Staphylococcus aureus SA113.

For `CC[C@H](C)[C@H](NC(=O)[C@H](CO)NC(=O)[C@@H]1CCCN1C(=O)[C@H](C)NC(=O)CNC(=O)[C@H](CC(C)C)NC(=O)[C@H](CCCCN)NC(=O)[C@@H](N)CCCCN)C(=O)N[C@H](C(=O)N[C@@H](CS)C(=O)N[C@H](C(=O)N[C@@H](CCCN=C(N)N)C(=O)N[C@@H](CCCN=C(N)N)C(=O)N[C@@H](C)C(=O)N[C@@H](Cc1ccccc1)C(=O)N[C@@H](C)C(=O)O)C(C)C)[C@@H](C)O` [KKLGAPSITCVRRAFA], the MIC (in general, the smallest concentration in the dilution series that meets the test's criterion for growth inhibition) was no less than 100 µM in [1]; no less than 50 µM in [2]; no less than 60 µM in experiment [3]; no less than 40 µM in [4]; no less than 100 µM in experiment [5]; no less than 100 µM in experiment [6]. In experiment [7], this compound gave an MIC of no less than 100 µM.

On to `CC[C@H](C)[C@H](NC(=O)[C@@H]1CCCN1C(=O)[C@H](CCCN=C(N)N)NC(=O)[C@H](CCCN=C(N)N)NC(=O)[C@H](Cc1c[nH]c2ccccc12)NC(=O)[C@@H](N)CCCN=C(N)N)C(=O)N[C@@H](CCCN=C(N)N)C(=O)N[C@@H](CCCN=C(N)N)C(=O)N[C@@H](CCCN=C(N)N)C(=O)N1CCC[C@H]1C(=O)N[C@H](C(=O)N[C@@H](CCCN=C(N)N)C(=O)N1CCC[C@H]1C(=O)N1CCC[C@H]1C(=O)N[C@@H](Cc1ccccc1)C(=O)N[C@@H](Cc1ccc(O)cc1)C(=O)N[C@@H](Cc1c[nH]c2ccccc12)C(=O)O)[C@@H](C)CC` [RWRRPIRRRPIRPPFYW], for which the MIC in [8] is 2 µM (≈ 4.82 µg/mL); in experiment [9], 4 µM (≈ 9.64 µg/mL); in experiment [10] it was 4 µM (≈ 9.64 µg/mL); in experiment [11], 1.41 µM (≈ 3.41 µg/mL); in experiment [12], 64 µM (≈ 154 µg/mL); in [13], 32 µM (≈ 77.1 µg/mL). Moreover, in experiment [14], the MIC is 32 µM (≈ 77.1 µg/mL).

As for `CC[C@H](C)[C@H](NC(=O)[C@@H](NC(=O)[C@@H]1CCCN1C(=O)[C@H](CO)NC(=O)[C@H](CC(C)C)NC(=O)[C@H](CCCCN)NC(=O)[C@H](CCCCN)NC(=O)[C@H](Cc1ccccc1)NC(=O)[C@H](CC(C)C)NC(=O)[C@H](CCCCN)NC(=O)[C@H](CCCCN)NC(=O)[C@H](CC(C)C)NC(=O)[C@H](CCCCN)NC(=O)[C@H](CCCCN)NC(=O)[C@H](CCCN=C(N)N)NC(=O)[C@@H](N)Cc1ccccc1)C(C)C)C(=O)N1CCC[C@H]1C(=O)N[C@@H](CC(C)C)C(=O)N[C@@H](CC(C)C)C(=O)N[C@@H](CCCCN)C(=O)N[C@@H](CC(C)C)C(=O)NCC(N)=O` [FRKKLKKLFKKLSPVIPLLKLG], the MIC in experiment [15] was 4 µM (≈ 10.4 µg/mL); in experiment [16], 2 µM (≈ 5.19 µg/mL); in experiment [17], 2 µM (≈ 5.19 µg/mL); in [18], 2 µM (≈ 5.19 µg/mL); in experiment [12] it was 2 µM (≈ 5.19 µg/mL); in experiment [19], 2.83 µM (≈ 7.34 µg/mL). For the same compound, the MIC in experiment [20] was found to be 2 µM (≈ 5.19 µg/mL); in experiment [13], 2 µM (≈ 5.19 µg/mL); in [21], 2 µM (≈ 5.19 µg/mL); in experiment [22], 4 µM (≈ 10.4 µg/mL).

As for `CC[C@H](C)[C@H](NC(=O)[C@H](CO)NC(=O)[C@H](CCCCN)NC(=O)[C@H](Cc1c[nH]c2ccccc12)NC(=O)[C@H](CC(C)C)NC(=O)[C@H](C)N)C(=O)N[C@@H](CC(C)C)C(=O)N[C@@H](CCCCN)C(=O)N[C@@H](CC(N)=O)C(=O)N[C@H](C(=O)NCC(=O)N[C@@H](CCCCN)C(=O)N[C@@H](C)C(=O)N[C@@H](C)C(=O)NCC(=O)N[C@@H](CCCCN)C(=O)N[C@@H](C)C(=O)N[C@H](C(=O)N[C@@H](CC(C)C)C(=O)N[C@@H](CC(N)=O)C(=O)N[C@@H](C)C(=O)N[C@H](C(=O)N[C@H](C(=O)N[C@@H](CC(=O)O)C(=O)N[C@@H](CCSC)C(=O)N[C@H](C(=O)N[C@@H](CC(N)=O)C(=O)N[C@@H](CCC(N)=O)C(N)=O)C(C)C)[C@@H](C)O)C(C)C)C(C)C)C(C)C` [ALWKSILKNVGKAAGKAVLNAVTDMVNQ], the MIC in experiment [23] is 2 µM (≈ 5.88 µg/mL); in experiment [24], no less than 32 µM; in experiment [25], 4 µM (≈ 11.8 µg/mL); in [26], 8 µM (≈ 23.5 µg/mL); in [13] it was 4 µM (≈ 11.8 µg/mL); in experiment [27] it was 2 µM (≈ 5.88 µg/mL). Besides, the MIC in experiment [28] is 2 µM (≈ 5.88 µg/mL); in [29], 4 µM (≈ 11.8 µg/mL).

Consider `CC(C)C[C@H](NC(=O)[C@H](CCCCN)NC(=O)[C@H](CCCN=C(N)N)NC(=O)[C@H](CCC(N)=O)NC(=O)[C@@H](N)CO)C(=O)N[C@@H](C)C(=O)N[C@@H](C)C(=O)N[C@@H](CCCCN)C(=O)N[C@@H](CC(C)C)C(=O)N[C@H](C(=O)N[C@@H](CO)C(=O)N[C@@H](CCCCN)C(=O)O)[C@@H](C)O` [SQRKLAAKLTSK], for which the MIC in experiment [30] was greater than 32 µM; in experiment [31] it was no less than 32 µM; in experiment [32], no less than 32 µM; in [33], no less than 32 µM; in [34] it was no less than 32 µM.

Regarding `CC[C@H](C)[C@H](N)C(=O)N[C@@H](C)C(=O)N[C@@H](C)C(=O)N[C@@H](CCC(N)=O)C(=O)NCC(=O)N[C@@H](CC(C)C)C(=O)N1CCC[C@H]1C(=O)N[C@@H](CCC(N)=O)C(=O)N[C@@H](CCC(=O)O)C(=O)O` [IAAQGLPQE], the MIC in experiment [35] is no less than 2500 µM; in [36], no less than 2500 µM; in experiment [37], no less than 312 µM; in experiment [38], no less than 2500 µM; in experiment [39] it was no less than 1250 µM; in experiment [40] it was no less than 1250 µM. Besides, the MIC in experiment [41], in experiment [42], in experiment [43], in experiment [44], in experiment [45] and in [46] was no less than 1250 µM in each case. In addition, the MIC in experiment [47] is no less than 1250 µM.
